Laboratory results published in patent US20240245677A1, “SELECTED COMPOUNDS FOR TARGETED DEGRADATION OF BRD9” (C4 THERAPEUTICS, INC., priority 2021, published 2024).
Several values for one entry are separate records, joined by “and”; a condition that tells them apart may be missing. Equal values may be shown once. Read-outs that look alike come from different tables or passages of the source.

Test: Pharmacokinetic study in male Sprague Dawley rats
Type: in vivo, rat
Details: for concentration at 0.033 h / concentration at 0.33 h / concentration at 1 h / concentration at 2 h / concentration at 4 h / concentration at 8 h / concentration at 24 h: male, Sprague Dawley
Procedure: The pharmacokinetic (PK) profile in plasma of Compound 1 was determined in male Sprague Dawley rats following single dose intravenous (IV) (2 mg/kg) and per os (PO) (10 mg/kg) administration. This study was performed under non-GLP conditions, and unless otherwise stated, all analytical reagents were at least standard laboratory reagent grade, and deionized water was prepared at the study site.
The characteristics of Compound 1 used in this study were as follows: molecular weight of base, 710.78; molecular weight of Compound 1 with salt, 824.81; purity on as is basis, 99.28%.
All animals were housed in cages with clean bedding and maintained and monitored for good health and at the discretion of the laboratory animal veterinarian. Certified rodent diet was provided, and water was available ad libitum. Environmental controls for the animal room were set to maintain a temperature of 22 to 25° C., humidity of 40-70% relative humidity, and a 12-hour light/12-hour dark cycle.
Normal healthy animals certified by the attending veterinarian were selected and acclimatized for a minimum of three days prior to initiation of the study. Animals were identified by body markings.
The rats were anaesthetized with a single dose of ketamine 50 mg/kg i.p. plus xylazine 6 mg/kg i.p. The right jugular was exposed, and a loose ligature was placed caudally, and the cranial end of the vein was ligated. A small incision was made between the ligatures into which a catheter (polyethylene 50 tubing with an internal diameter of 0.58 mm and outer diameter of 0.96 mm) was inserted. The catheter was secured in place by tying the loose ligature around the catheterized vessel. A small incision was made in the scapular region to serve as the exit site of the catheter. The catheter was subcutaneously tunneled and exteriorized through the scapular incision. A stay suture was placed in the scapular area. Patency was tested, and the catheter was filled with a locking solution (heparinized saline) and sealed with a stainless-steel plug. The incision was then sutured with sterile suturing material. Anti-septic solution was applied to the sutured site and the animal was placed back in its home cage. The animals were closely observed throughout the recovery period of 24 hours. The rats were freely moving in the cage (one rat per cage).
Test animals were weighed prior to drug administration, and the standard weight of the animals used was 190 grams. The animals were divided into two groups, IV group and PO group, with each group containing 3 test animals each and 2 spare animals. The IV dose was administered by intravenous injection into the tail vein and PO dose was administered via oral gavage needle. The dosing volume was 5 mL/kg body weight for both groups. The dosing concentration was 0.4 mg/mL for the IV group and 2 mg/mL for the PO group. The animals were in fasted state during the study.
For both dosing groups, blood was collected from the jugular vein (serial sampling) for plasma isolation at 0.033, 0.33, 1, 2, 4, 6, 8, and 24 hour timepoints. The anti-coagulant solution used was 6% (v/v) sodium citrate (200 mM, pH 4.79).
For sample collection, the animals were held to remove the first two drops of blood from the cannula to ensure removal of any excess heparinized saline before collection of blood. The external catheter was connected to a syringe and 0.20-0.30 mL of blood was collected in the syringe and transferred to a pre-labeled, pre-chilled tube. Blood volume was replaced by administering to the animal an equal volume of saline through the jugular vein. After blood collection from each animal, the sample from that animal was recorded in the sample collection sheet.
After collection of each blood sample, the blood sample was stored on ice prior to centrifugation. Blood samples were centrifuged within 20 minutes of collection to separate plasma. Centrifugation was conducted at 2500×g for 15 minutes at 4° C. […]

[1] = rat, plasma, 2 mg/kg IV, Male Sprague Dawley Rats, mean
[2] = rat, plasma, 10 mg/kg PO, Male Sprague Dawley Rats, mean

In the case of `COc1cc(-c2cn(C)c(=O)c(C)c2C)cc(OC)c1CN1CC[C@H](N2CCN(c3ccc(N[C@H]4CCC(=O)NC4=O)cc3F)CC2)C(F)(F)C1` [Compound 1, (S)-3-((4-(4-((S)-1-(2,6-dimethoxy-4-(1,4,5-trimethyl-6-oxo-1,6-dihydropyridin-3-yl)benzyl)-3,3-difluoropiperidin-4-yl)piperazin-1-yl)-3-fluorophenyl)amino)-piperidine-2,6-dione], the “Plasma Concentration, individual rats” value (2 mg/kg IV, 0.033 h) is reported as 827.34 ng/mL and 751.46 ng/mL, the “Plasma Concentration, individual rats” value (2 mg/kg IV, 0.33 h) is reported as 387.61 ng/mL and 411.63 ng/mL and the “Plasma Concentration, individual rats” value (2 mg/kg IV, 1 h) is reported as 253.11 ng/mL and 196.32 ng/mL. The “Plasma Concentration, individual rats” value (2 mg/kg IV, 2 h) was 175.63 ng/mL and 182.50 ng/mL, the “Plasma Concentration, individual rats” value (2 mg/kg IV, 4 h) was 82.15 ng/mL and 113.01 ng/mL and the “Plasma Concentration, individual rats” value (2 mg/kg IV, 8 h) was 66.27 ng/mL and 68.01 ng/mL. The “Plasma Concentration, individual rats” value (2 mg/kg IV, 24 h) was 2.51 ng/mL and 4.24 ng/mL, the “CI” value (2 mg/kg IV, Male Sprague Dawley Rats, mean) was 21.64 mL/min/kg and the concentration at 0.033 h (rat, plasma, intravenous, 2 mg/kg, 2 mg/kg IV, 0.033 h, read-out: Plasma Concentration, Average) was 811 ng/mL. It also gave a concentration at 0.033 h (rat, plasma, intravenous, 2 mg/kg, 2 mg/kg IV, 0.033 h, read-out: Plasma Concentration, individual rats) of 854 ng/mL, a concentration at 0.33 h (rat, plasma, intravenous, 2 mg/kg, 2 mg/kg IV, 0.33 h, read-out: Plasma Concentration, Average) of 395 ng/mL and a concentration at 0.33 h (rat, plasma, intravenous, 2 mg/kg, 2 mg/kg IV, 0.33 h, read-out: Plasma Concentration, individual rats) of 385 ng/mL. For the same compound, the concentration at 1 h (rat, plasma, intravenous, 2 mg/kg, 2 mg/kg IV, 1 h, read-out: Plasma Concentration, Average) was 202 ng/mL, the concentration at 1 h (rat, plasma, intravenous, 2 mg/kg, 2 mg/kg IV, 1 h, read-out: Plasma Concentration, individual rats) was 158 ng/mL and the concentration at 2 h (rat, plasma, intravenous, 2 mg/kg, 2 mg/kg IV, 2 h, read-out: Plasma Concentration, Average) was 181 ng/mL. It also gave a concentration at 2 h (rat, plasma, intravenous, 2 mg/kg, 2 mg/kg IV, 2 h, read-out: Plasma Concentration, individual rats) of 186 ng/mL, a concentration at 4 h (rat, plasma, intravenous, 2 mg/kg, 2 mg/kg IV, 4 h, read-out: Plasma Concentration, Average) of 107 ng/mL and a concentration at 4 h (rat, plasma, intravenous, 2 mg/kg, 2 mg/kg IV, 4 h, read-out: Plasma Concentration, individual rats) of 125 ng/mL. The concentration at 8 h (rat, plasma, intravenous, 2 mg/kg, 2 mg/kg IV, 8 h, read-out: Plasma Concentration, Average) was 61.9 ng/mL, the concentration at 8 h (rat, plasma, intravenous, 2 mg/kg, 2 mg/kg IV, 8 h, read-out: Plasma Concentration, individual rats) was 51.4 ng/mL and the concentration at 24 h (rat, plasma, intravenous, 2 mg/kg, 2 mg/kg IV, 24 h, read-out: Plasma Concentration, Average) was 3.76 ng/mL. It also gave a concentration at 24 h (rat, plasma, intravenous, 2 mg/kg, 2 mg/kg IV, 24 h, read-out: Plasma Concentration, individual rats) of 4.54 ng/mL, a concentration at 0.033 h (rat, plasma, oral, 10 mg/kg, 10 mg/kg PO, Male Sprague Dawley Rats, 0.033 h, Rat-1, read-out: Plasma Concentration (ng/mL) Rat-1) of 2.98 ng/mL and a concentration at 0.033 h (rat, plasma, oral, 10 mg/kg, 10 mg/kg PO, Male Sprague Dawley Rats, 0.033 h, Rat-2, read-out: Plasma Concentration (ng/mL) Rat-2) of 16.4 ng/mL. It also gave a concentration at 0.033 h (rat, plasma, oral, 10 mg/kg, 10 mg/kg PO, Male Sprague Dawley Rats, 0.033 h, Rat-3, read-out: Plasma Concentration (ng/mL) Rat-3) of 1.81 ng/mL, a concentration at 0.033 h (rat, plasma, oral, 10 mg/kg, 10 mg/kg PO, Male Sprague Dawley Rats, 0.033 h, average, read-out: Plasma Concentration Average) of 7.06 ng/mL and a concentration at 0.33 h (rat, plasma, oral, 10 mg/kg, 10 mg/kg PO, Male Sprague Dawley Rats, 0.33 h, Rat-1, read-out: Plasma Concentration (ng/mL) Rat-1) of 215 ng/mL. The concentration at 0.33 h (rat, plasma, oral, 10 mg/kg, 10 mg/kg PO, Male Sprague Dawley Rats, 0.33 h, Rat-2, read-out: Plasma Concentration (ng/mL) Rat-2) was 177 ng/mL, the concentration at 0.33 h (rat, plasma, oral, 10 mg/kg, 10 mg/kg PO, Male Sprague Dawley Rats, 0.33 h, Rat-3, read-out: Plasma Concentration (ng/mL) Rat-3) was 350 ng/mL and the concentration at 0.33 h (rat, plasma, oral, 10 mg/kg, 10 mg/kg PO, Male Sprague Dawley Rats, 0.33 h, average, read-out: Plasma Concentration Average) was 247 ng/mL. For the same compound, the concentration at 1 h (rat, plasma, oral, 10 mg/kg, 10 mg/kg PO, Male Sprague Dawley Rats, 1 h, Rat-1, read-out: Plasma Concentration (ng/mL) Rat-1) was 648 ng/mL, the concentration at 1 h (rat, plasma, oral, 10 mg/kg, 10 mg/kg PO, Male Sprague Dawley Rats, 1 h, Rat-2, read-out: Plasma Concentration (ng/mL) Rat-2) was 416 ng/mL and the concentration at 1 h (rat, plasma, oral, 10 mg/kg, 10 mg/kg PO, Male Sprague Dawley Rats, 1 h, Rat-3, read-out: Plasma Concentration (ng/mL) Rat-3) was 729 ng/mL. It also gave a concentration at 1 h (rat, plasma, oral, 10 mg/kg, 10 mg/kg PO, Male Sprague Dawley Rats, 1 h, average, read-out: Plasma Concentration Average) of 598 ng/mL, a concentration at 2 h (rat, plasma, oral, 10 mg/kg, 10 mg/kg PO, Male Sprague Dawley Rats, 2 h, Rat-1, read-out: Plasma Concentration (ng/mL) Rat-1) of 560 ng/mL and a concentration at 2 h (rat, plasma, oral, 10 mg/kg, 10 mg/kg PO, Male Sprague Dawley Rats, 2 h, Rat-2, read-out: Plasma Concentration (ng/mL) Rat-2) of 864 ng/mL. For the same compound, the concentration at 2 h (rat, plasma, oral, 10 mg/kg, 10 mg/kg PO, Male Sprague Dawley Rats, 2 h, Rat-3, read-out: Plasma Concentration (ng/mL) Rat-3) was 594 ng/mL, the concentration at 2 h (rat, plasma, oral, 10 mg/kg, 10 mg/kg PO, Male Sprague Dawley Rats, 2 h, average, read-out: Plasma Concentration Average) was 673 ng/mL and the concentration at 4 h (rat, plasma, oral, 10 mg/kg, 10 mg/kg PO, Male Sprague Dawley Rats, 4 h, Rat-1, *Outlier: Aberrant value, read-out: Plasma Concentration (ng/mL) Rat-1) was 227 ng/mL. It also gave a concentration at 4 h (rat, plasma, oral, 10 mg/kg, 10 mg/kg PO, Male Sprague Dawley Rats, 4 h, Rat-2, read-out: Plasma Concentration (ng/mL) Rat-2) of 593 ng/mL, a concentration at 4 h (rat, plasma, oral, 10 mg/kg, 10 mg/kg PO, Male Sprague Dawley Rats, 4 h, Rat-3, read-out: Plasma Concentration (ng/mL) Rat-3) of 420 ng/mL and a concentration at 4 h (rat, plasma, oral, 10 mg/kg, 10 mg/kg PO, Male Sprague Dawley Rats, 4 h, average, read-out: Plasma Concentration Average) of 506 ng/mL. The concentration at 8 h (rat, plasma, oral, 10 mg/kg, 10 mg/kg PO, Male Sprague Dawley Rats, 8 h, Rat-1, read-out: Plasma Concentration (ng/mL) Rat-1) was 304 ng/mL, the concentration at 8 h (rat, plasma, oral, 10 mg/kg, 10 mg/kg PO, Male Sprague Dawley Rats, 8 h, Rat-2, read-out: Plasma Concentration (ng/mL) Rat-2) was 527 ng/mL and the concentration at 8 h (rat, plasma, oral, 10 mg/kg, 10 mg/kg PO, Male Sprague Dawley Rats, 8 h, Rat-3, read-out: Plasma Concentration (ng/mL) Rat-3) was 370 ng/mL. The concentration at 8 h (rat, plasma, oral, 10 mg/kg, 10 mg/kg PO, Male Sprague Dawley Rats, 8 h, average, read-out: Plasma Concentration Average) was 400 ng/mL, the concentration at 24 h (rat, plasma, oral, 10 mg/kg, 10 mg/kg PO, Male Sprague Dawley Rats, 24 h, Rat-1, read-out: Plasma Concentration (ng/mL) Rat-1) was 21.5 ng/mL and the concentration at 24 h (rat, plasma, oral, 10 mg/kg, 10 mg/kg PO, Male Sprague Dawley Rats, 24 h, Rat-2, read-out: Plasma Concentration (ng/mL) Rat-2) was 49.3 ng/mL. It also gave a concentration at 24 h (rat, plasma, oral, 10 mg/kg, 10 mg/kg PO, Male Sprague Dawley Rats, 24 h, Rat-3, read-out: Plasma Concentration (ng/mL) Rat-3) of 36.8 ng/mL, a concentration at 24 h (rat, plasma, oral, 10 mg/kg, 10 mg/kg PO, Male Sprague Dawley Rats, 24 h, average, read-out: Plasma Concentration Average) of 35.8 ng/mL and an AUC(0-inf) [1] of 1540 ng·h/mL. The AUC(0-t) [1] was 1520 ng·h/mL, the C0 [1] was 879 ng/mL and the MRT last [1] was 4.82 h. It also gave a half-life [1] of 238 min, a Vd (rat, plasma, 2 mg/kg IV, Male Sprague Dawley Rats, mean, read-out: Vdss) of 6.7 L/kg and an AUC(0-inf) [2] of 6560 ng·h/mL. The AUC(0-t) [2] was 6290 ng·h/mL, the Cmax [2] was 747 ng/mL and the MRT last [2] was 7.34 h. For the same compound, the Tmax [2] was 1.33 h, the bioavailability [2] was 82.8% and the half-life [2] was 307 min.
